Assays:
[1] = system: BT-20 human breast cancer cells; assay: MTT cytotoxicity assay, BT-20; format: cell-based; details: BT-20 (breast cancer), 24-36 hours, read-out: IC50 [MTT]
[2] = system: HS-SULTAN (multiple myeloma); assay: MTT cytotoxicity assay, HS-SULTAN; format: cell-based; details: Homo sapiens
PC3 (prostate cancer) = assay: MTT cytotoxicity assay, PC3; format: cell-based; details: Homo sapiens
[3] = system: BT-20 human breast cancer cells; assay: Clonogenic assay, BT-20; format: cell-based; details: 7 days
Method: The growth-inhibiting activity of the synthetic Phorboxazole A and the synthesized derivatives was tested in clonogenic assays. Cancer cells were treated with 1 nM, 10 nM, and 100 nM doses of synthetic Phorboxazole A or derivatives of phorboxazole A. Treated cells included U373 human glioblastoma cells, NALM-6, human B-lineage acute lymphoblastic leukemia cells, and BT-20 human breast cancer cells. The cancer cells were resuspended in clonogenic medium consisting of alpha-MEM supplemented with 0.9% methylcellulose, 30% fetal bovine serum, and 50 μM 2-mercaptoethanol. Cells were plated in duplicate Petri dishes at 100,000 cells/mL/dish and cultured in a humidified 5% CO2 incubator for 7 days. Cancer cell colonies were enumerated on a grid using an inverted phase microscope of high optical resolution. Results were expressed as % inhibition of clonogenic cells at a particular concentration of the test agent using the formula:
% Inhibition=(1−Mean # of colonies [Test]/Mean # of colonies [Control]×100.

[4] = system: U373 human glioblastoma cells; assay: MTT cytotoxicity assay, U373; format: cell-based; details: U373 MG, U373 (brain tumor, glioblastoma), 24-36 hours, read-out: IC50 [MTT]
[5] = system: MDA-MB-231 breast cancer cells; assay: In vitro adhesion assay to ECM proteins, MDA-MB-231; format: cell-based, human; details: laminin-, fibronectin-, and collagen-coated plates, 0.1 μM to 1 μM for 24 hours
Method: Human brain tumor cell lines U-373 MG and breast cancer cell lines BT-20 and MDA-MB-231 were obtained from American Type Culture Collection (ATCC, Rockville, Md.) and maintained in liquid culture using DMEM supplemented with 10% fetal bovine serum and antibiotics. Fibroblast conditioned medium was used as a source of chemoattractant in vitro invasion assays. Conditioned medium was prepared as described in the literature (Albini et.al., 1987, Cancer Res., 47:3239-3245).
In vitro adhesion assays were performed to (a) study the baseline adhesive properties of various breast cancer and glioblastoma cell lines and (b) evaluate the effects of phorboxazole A derivatives on the adhesive properties of breast cancer and glioblastoma cells. The plates for the adhesion assays were precoated with the extracellular matrix proteins laminin, fibronectin, or type IV collagen (each at a final concentration of 1 μg/ml in PBS) overnight at 4° C. and dried. On the day of the experiment, the wells were rehydrated and blocked with 10% bovine serum albumin in PBS for 1 hour at room temperature and used for the adhesion assays, as described below.
The effects of synthetic phorboxazole A and specific derivatives on adhesion of breast cancer and glioblastoma cells was studied. Exponentially growing cells in DMEM were incubated with phorboxazole compounds or genistein as a control at concentrations ranging from 0.1 μM to 1 μM for 24 hours in a humidified 5% CO2 atmosphere. DMSO (0.1%) was included as a vehicle control. After treatment, cells were detached from the flasks with 0.05% trypsin (Life Technologies) resuspended in DMEM, incubated at 37° C. for 2 hours to allow them to recover from the trypsinization stress and examined for their ability to adhere to plates precoated with ECM proteins.
In adhesion assays, cells were centrifuged, washed twice with serum-free DMEM, counted and resuspended in serum-free DMEM to a final concentration of 2.5×10^5 cells/ml. […] The adherent fraction was quantitated using MTT (3-[4,5-dimethylthiazol-2-yl]-2,5-diphenyltetrazolium bromide) assays. […] The absorbance of each well was measured in a microplate reader (Labsystems) at 540 nm and a reference wavelength of 690 nm.
To translate the OD540 values into the number of cells in each well, the OD540 values were compared to those on standard OD540-versus-cell number curves generated for each cell line. The adherent fractions of cells treated with phorboxazole A derivatives were compared to those of DMSO-treated control cells and the percent inhibition of adhesion was determined using the formula: [formula]
Each treatment condition was evaluated in duplicate in 3 independent experiments. The IC50 values were calculated by non-linear regression analysis. […]

C=C1C[C@@H]2C[C@@H]3C[C@@H](O)C[C@@H](O3)c3coc(n3)/C=C/C[C@H]3O[C@@H](/C(C)=C/c4coc(C[C@]5(O)C[C@H](OC)C[C@H]([C@H](O)/C=C(C)/C=C/[C@@H](C/C=C/Br)OC)O5)n4)[C@H](C)[C@@H](OC(=O)/C=C\C[C@@H](C1)O2)[C@H]3C [Compound 1, Phorboxazole A]
IC50 [1]: 3.4 nM | IC50 [2]: 29.8 nM | IC50 (PC3 (prostate cancer)): 14.2 nM | Mean Number Colonies/10^4 cells ([3]; 1 nM): 1070 | Mean Number Colonies/10^4 cells ([3]; 10 nM): 0 | Mean Number Colonies/10^4 cells ([3]; 100 nM): 0 | inhibition at 0.001 µM ([3]; Homo sapiens, 168 h, 1 nM, read-out: Inhibition of clonogenic growth): 29.8% | inhibition at 0.01 µM ([3]; Homo sapiens, 168 h, 10 nM, read-out: Inhibition of clonogenic growth): > 99.9% | inhibition at 0.1 µM ([3]; Homo sapiens, 168 h, 100 nM, read-out: Inhibition of clonogenic growth): > 99.9% | IC50 [4]: 6.7 nM | Inhibition of cell adhesion [5]: active
